{"source": "patent US20110166066A1", "about": "“CATESTATIN (CST) AND ITS VARIANTS FOR TREATMENT OF CARDIOVASCULAR AND METABOLIC DISORDERS” (priority 2008, published 2011)", "key": {"[1]": {"test_system": "Langendorff perfused rat heart", "test": "Isoproterenol stimulated Langendorff heart preparations", "conditions": "ISO 0.1 nM to 1 μM; WT-CST 33 and 110 nM, G364S-CST 200 nM, P370L-CST 165 nM"}, "eNOS": {"test_system": "eNOS", "test": "eNOS signalling by immunoblotting of mouse tissues", "format": "in vivo", "conditions": "CgA-KO mice", "description": "Adult WT (C57BL/6) and CgA-KO mice with mixed genetic background (129svJ×C57BL/6) were used in this study. Both WT and KO mice were generated from the original founder carrying mixed genotype (50% 129svJ: 50% C57BL/6) and were maintained by brother/sister mating. Hypertensive CGA-KO mice will serve as a model for hyper insulin sensitivity. WT mice were fed 60% high fat diet (HFD) for 20 weeks. Body weight and blood glucose levels were monitored and glucose and insulin tolerance testa were performed to determine status of insulin resistance. After 20 weeks of HFD feeding mice were injected IP with catestatin (40 μg/gm body weight) twice daily for 7 days. On the 8th day, 12 hours fasted mice were subjected to glucose tolerance tests to determine their insulin sensitivity. Tissues of WT and CgA-KO mice are analyzed AMPK and eNOS signalling by immunoblotting."}, "C57BL/6 wild-type mice": {"test_system": "C57BL/6 wild-type mice", "test": "Mouse hind-limb ischemia model", "format": "in vivo", "conditions": "for Blood perfusion (LDPI), in words: 3 and 4 weeks after operation", "procedure": "Mouse hind-limb ischemia model. Male C57BL/6 wild-type mice at the age of 12 months were subjected to unilateral hind-limb surgery. Briefly, the left femoral artery was exposed, ligated with 5-0 silk ligatures, and excised. Mice were injected with saline or 10 μg catestatin into thigh and calf muscles after operation and every other day for weeks 1 and 2 and 2 times per week for weeks 3 and 4. All further measurements and analyses were performed by investigators blinded to the treatment of the animals.\nBlood flow measurement. Blood flow measurements were performed using a laser Doppler perfusion image (LDPI) analyzer (Moor Instruments, USA) as described. To minimize data variables attributable to ambient light and temperature animals were kept on a heating plate at 37° C. before measurement and blood perfusion is expressed as the LDPI index representing the ratio of left (=operated, ischemic leg) versus right (=not-operated, not-ischemic leg) limb blood flow. A ratio of 1 before operation indicates equal blood perfusion of both legs, whereas after femoral artery excision this ratio drops to 0.26, indicating severe attenuation of leg blood supply in the operated leg.\nAlkaline phosphatase staining and Immunohistochemistry. For tissue staining, mice were sacrificed and ischemic limb tissues were retrieved after 4 weeks. Specimens were fixed in 10% (v/v) buffered formaldehyde, dehydrated with graded ethanol series and embedded in paraffin. Alternatively, fresh tissue was embedded in OCT compound (TISSUE-TEK®, Sakura Finetek) and snap-frozen in liquid nitrogen. Tissues were sliced into 5-μm sections. Vascular endothelial cells were identified by alkaline phosphatase staining and for assessment of artery/arteriole density sections were stained with a mouse monoclonal alpha-smooth muscle actin antibody (Pharmingen) as described (36). Adductor muscle samples of each leg were divided into 2 parts and capillaries (alkaline phosphatase positive) and arteries (alpha-smooth muscle actin positive) were counted in five sections of each part and are expressed as capillary and arteriole density per mm^2."}, "sympathochromaffin cells": {"test_system": "sympathochromaffin cells", "conditions": "in vitro, cited from earlier work"}, "EPCs": {"test_system": "EPCs", "test": "Effects on EPCs in-vitro", "format": "cell-based"}, "ERK1/2": {"test_system": "ERK1/2", "test": "Immunoblot of phosphorylated ERK1/2 in WT-CST perfused hearts", "design": "species or system rat", "conditions": "110 nM", "procedure": "(§1) Cardiac signaling—Hearts were perfused with or without 110 nM WT-Cts as before. At the end of experiment hearts were snap frozen under liquid nitrogen and homogenized with 1 ml of ice cold 0.2 M sucrose, Tris maleate (pH 7.0) buffer supplemented with 2 mM EDTA, pH 8.0, 1 mM sodium orthovanadate, 10 mM sodium pyrophosphate, 1 mM phenylmethylsulfonyl fluoride, 10 μg/ml leupeptin, 10 μg/ml aprotinin and 0.1 mM 3-isobutyl-1-methylxanthine. SR membrane fractions were isolated from cytosolic proteins as described before (27). Protein content was determined by Bradford assay (BIO-RAD) and 100 μg of cytosolic protein was subjected to SDS-PAGE immunoblot analysis for phosphorylated-ERK, total ERK (P-ERK and T-ERK; Santa Cruz, Calif.). […]\n(§2) Statistics—Data are expressed as the mean±SEM. Curve fitting was accomplished in the program Kaleidagraph (Synergy Software, Reading, Pa.). […] For analysis of phosphorylated proteins, levels were quantified using Bio-Rad QuantifyOne and volumes of phosphorylated proteins were divided by the levels of non-phosphorylated proteins to calculate fold activation. Stimulation of protein activity was expressed as fold increase over vehicle-treated control. The means and S.E.M. were calculated for each treatment. […]"}, "[2]": {"test_system": "PLN (phospholamban) Ser16", "test": "Immunoblot of phosphorylated PLN in WT-CST perfused hearts", "design": "species or system rat", "conditions": "110 nM", "procedure": "as §1, §2"}}, "note": "Like-named read-outs stand apart in the source and are kept apart here. No end group written: not given here."}
{"sequence": "SSMKLSFRARAYGFRGPGPQL [WT-CST, catestatin]", "values": [{"measurement": "ISO-induced stimulation of LVP (concentration-response)", "setting": "[1]", "result": "significantly inhibited"}, {"measurement": "eNOS signal", "setting": "eNOS", "result": "reduced"}, {"measurement": "Blood perfusion (LDPI), in words", "setting": "C57BL/6 wild-type mice; listed as CST", "result": "improved perfusion"}, {"measurement": "Blood perfusion (LDPI), in words", "setting": "C57BL/6 wild-type mice; listed as catestatin", "result": "improved blood perfusion"}, {"measurement": "Capillary density, in words", "setting": "C57BL/6 wild-type mice; 4 weeks", "result": "significantly increased capillary density"}, {"measurement": "Density of arteries/arterioles, in words", "setting": "C57BL/6 wild-type mice; 4 weeks", "result": "increases density of arteries/arterioles"}, {"measurement": "Alpha-smooth muscle actin positive vessels", "setting": "C57BL/6 wild-type mice; 4 weeks after surgery", "result": "7.5±0.5", "unit": "vessels/mm^2"}, {"measurement": "Capillaries (alkaline phosphatase positive vessels)", "setting": "C57BL/6 wild-type mice; 4 weeks after surgery", "result": "356±17", "unit": "capillaries/mm^2"}, {"measurement": "LDPI ratio", "setting": "C57BL/6 wild-type mice; 4 wks after induction of ischemia, 10 μg i.m.", "result": "0.94±0.03"}, {"measurement": "Perfusion ratios versus saline", "setting": "C57BL/6 wild-type mice; after 3 weeks", "result": "significantly better"}, {"measurement": "Rank order of potency, inhibition of catecholamine secretion", "setting": "sympathochromaffin cells; listed as wild-type (WT)", "result": "Pro370Leu>wild-type (WT)>Gly364Ser>Arg374Gln"}, {"measurement": "Rank order of potency, inhibition of catecholamine secretion", "setting": "sympathochromaffin cells; listed as wildtype (WT)", "result": "Pro370Leu>wildtype (WT)>Gly364Ser>Arg374Gln"}, {"measurement": "Effects on EPCs (chemotaxis, incorporation into vascular structures)", "setting": "EPCs", "result": "showed effects on EPCs"}, {"measurement": "Phosphorylation of ERK1/2", "setting": "ERK1/2", "result": "inhibited"}, {"measurement": "Phosphorylation of PLN at Ser16", "setting": "[2]", "result": "inhibited"}]}
